From publication PMC5391968, “Comparison of cell-based assays for the identification and evaluation of competitive CXCR4 inhibitors” (PLoS ONE, 2017)
Where two headings read alike, the source gives them in different places.

Experiments:
[1] = target: T1, CXCR4 (Homo sapiens, UniProt P61073); assay: Calcium mobilization assay (FLIPR Tetra) in U87.CD4.CXCR4 cells; format: cell-based; conditions: U87.CD4.CXCR4 cells, 6.25 nM CXCL12, mean ± SEM; read-out: IC50 Calcium signaling (CXCL12-induced)
Experimental: U87.CD4.CXCR4 cells were seeded at 2x10^4 cells per well in gelatin-coated black-walled 96-well plates [0.1% gelatin in DPBS, incubated at RT for two hours and washed once with DPBS] and incubated at 37°C and 5% CO2 overnight. […] Fluo-2 AM loaded cells were washed with assay buffer before being incubated in the FLIPR Tetra system at 37°C for five minutes. At the start of the kinetic measurement, compounds were added to the cell plate by the internal robotic system followed by an incubation period of 10 minutes during which changes in the intracellular calcium level were continuously measured by the FLIPR Tetra. […] Each condition was measured in triplicate and repeated several times as further indicated (see Results).

[2] = tested on: CXCR4-positive Jurkat cells; assay: cells; format: cell-based, human; conditions: Jurkat cells, 6.25 nM CXCL12, two hours, mean ± SEM; read-out: IC50 Chemotaxis
Experimental: Jurkat cells were washed twice in assay buffer (see above), dispensed into a 96-well plate (5x10^5 cells per well) containing serial dilutions of compounds (in assay buffer) and incubated at RT in the dark for 10 minutes. […] Suspensions of 1.87x10^4 cells were transferred to the chemotaxis insert plate. […] After removal of the insert plate, migrated cells were centrifuged and resuspended in DPBS containing flow cytometry cell counting beads ([…] Fluorescent Particles; Gentaur, London, UK). Both migrated cells and particles were counted by flow cytometry (FACSCanto II; Becton Dickinson). Each compound concentration was tested in triplicate. Data were analyzed using the FlowJo software and the total number of migrated cells was calculated, according to the counted and total number of beads present in the sample.

[3] = target: T1, CXCR4; assay: CXCL12^AF647 binding assay on Jurkat cells; conditions: Jurkat cells, 2.9 nM CXCL12^AF647, mean ± SEM; read-out: IC50 CXCL12-CXCR4 binding interaction
Experimental: In brief, Jurkat cells were washed twice in assay buffer [Hank’s Balanced Salt Solution (HBSS; Thermo Fisher Scientific), 20 mM HEPES buffer (Thermo Fisher Scientific), 0.2% bovine serum albumin (Sigma-Aldrich), pH 7.4]. […] Afterwards, cells were washed twice in assay buffer and subsequently fixed in 1% paraformaldehyde in Dulbecco’s phosphate buffered saline (DPBS). Samples were analyzed with the FACSArray flow cytometer (Becton Dickinson, NJ, USA). Data were further analyzed with the FlowJo Software (Ashland, Oregon, USA).

[4] = tested on: HIV-1 NL4-3 (X4); assay: microbe, parasite or virus in culture; format: cell-based; conditions: PHA-stimulated PBMCs, ten days post infection, p24 Ag ELISA, mean ± SEM; read-out: IC50 HIV-1 (X4) NL4-3 replication, PHA-stimulated PBMCs
Experimental: PHA-stimulated PBMCs at 5x10^5 cells per sample, pre-incubated with test compounds dissolved in cell culture medium containing IL-2 (2 ng/ml; […] After three days, fresh culture medium with IL-2 was added. Ten days post infection cell supernatant was collected for HIV-1 p24 core antigen enzyme-linked immunosorbent assay (ELISA; Perkin Elmer, Boston, MA, USA) according to the manufacturer’s protocol. In the antiviral assays, each condition was tested in duplicate.

[5] = target: T1, CXCR4; assay: CXCR4 internalization assay in SUP-T1 cells; format: cell-based; design: CXCR4 receptors endogenously expressed on SUP-T1 cells; endogenous in cells; host or cells: SUP-T1 (ATCC)
Experimental: T-lymphoblastic SUP-T1 cells were washed twice in DPBS containing 2% FBS. Afterwards, cells were first incubated with the PE-labeled rat anti-human CXCR4 mAb (clone 1D9; 2 μg/ml in DPBS/2% FBS; BD Pharmingen) on ice for 45 minutes. […] SUP-T1 cells were subsequently washed once with ice cold DPBS and twice with ice cold assay buffer (see above) before being treated with test compound on ice for 15 minutes. […] Samples were immediately analyzed with the FACSCalibur flow cytometer (Becton Dickinson) whereby the measured fluorescence corresponds to the amount of […] CXCR4 receptors. Data were further analyzed with the FlowJo software.

[6] = tested on: HIV-1 NL4-3 (X4); assay: microbe, parasite or virus in culture; format: cell-based; conditions: MT-4 cells, four days post infection, MTS, mean ± SEM; read-out: IC50 HIV-1 (X4) NL4-3 replication, MT-4 cells
Experimental: The anti-HIV replication assays in MT-4 cells and PHA-stimulated PBMCs have been described previously. The HIV-1 T-tropic molecular clone NL4-3 (X4) was obtained from the National Institute of Allergy and Infectious Disease (NIAID) AIDS reagent program (Bethesda, MD, USA). Briefly, 5x10^4 MT-4 cells (in cell culture medium) were treated with different concentrations of compound at 37°C for 30 minutes. Afterwards, a 50% tissue culture infectious dose of the NL4-3 viral stock was added to the cell-compound mixtures. Four days post infection, the cytopathic effect was evaluated microscopically and cell viability was assessed with the MTS method, as described above.
In the antiviral assays, each condition was tested in duplicate.

[7] = target: T1, CXCR4; assay: CXCL12/CXCR4 interaction on SUP-T1 cells; format: binding; design: CXCR4 receptors endogenously expressed on SUP-T1 cells; endogenous in cells; host or cells: SUP-T1 (ATCC); conditions: high concentration, data not shown
[8] = target: T1, CXCR4; assay: Labeled CXCR4 monoclonal antibody binding (clones 12G5, 1D9), flow cytometry; design: CXCR4 receptors endogenously expressed on SUP-T1 cells; endogenous in cells; host or cells: SUP-T1 (ATCC); conditions: 12G5 clone and 1D9 clone, data not shown
Experimental: A feature of CXCR4, shared with many other GPCRs, is its internalization following agonist binding, also known as receptor endocytosis. To evaluate the potential inhibitory effect of the compounds on CXCR4 endocytosis, CXCR4 receptors endogenously expressed on SUP-T1 cells were first stained with a PE-labeled rat anti-human CXCR4 mAb targeting the receptor’s N-terminus (clone 1D9) and subsequently incubated with compound. […] In addition, when SUP-T1 cells were incubated with compound for thirty minutes at 4°C, and afterwards stained with the CXCR4 mAb (1D9) for thirty minutes at 4°C, no displacement (i.e. decrease in mAb binding) of the CXCR4 mAb was observed by flow cytometry (data not shown). […] In consequence, reduced cellular staining in our assay reflects the inhibitory effects of compounds on receptor internalization and not simply displacement of the CXCR4 mAb.

T1 sequence (P61073 whole entry): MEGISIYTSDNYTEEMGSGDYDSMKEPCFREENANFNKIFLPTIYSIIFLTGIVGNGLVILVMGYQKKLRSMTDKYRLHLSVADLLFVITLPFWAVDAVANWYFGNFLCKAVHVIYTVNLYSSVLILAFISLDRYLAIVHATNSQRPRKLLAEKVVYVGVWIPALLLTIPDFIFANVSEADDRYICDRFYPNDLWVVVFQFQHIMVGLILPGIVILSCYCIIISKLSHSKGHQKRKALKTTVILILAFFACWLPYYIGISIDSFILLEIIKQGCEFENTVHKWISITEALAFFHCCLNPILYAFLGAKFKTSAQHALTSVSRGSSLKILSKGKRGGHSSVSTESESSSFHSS

Compound: c1ccc(NCc2ccc(CNc3ccccn3)cc2)nc1 [WZ811]
- IC50 [1]: > 100 µM
- IC50 [2]: > 100 µM
- IC50 [3]: > 100 µM
- IC50 [4]: 38.2 µM
- induction of CXCR4 internalization (agonistic effect) ([5]; 100 μM, in absence of CXCL12, data not shown): absence of an agonistic effect
- IC50 ([5]; SUP-T1 cells, 6.25 nM CXCL12, 37°C 30 minutes, mean ± SEM): > 100 µM
- IC50 [6]: > 100 µM
- inhibition of the interaction between CXCL12 and CXCR4 [7]: unable, even at high concentration, to inhibit the interaction between CXCL12 and CXCR4
- reduction of labeled CXCR4 mAb binding [8]: unable to reduce mAb binding
